Tests used:
[1] = Total clearance in nosocomial pneumonia patient at 1 g administered every 8 hrs for 3 days as shot-term iv infusion for 40 mins or at a loading dose of 1 g and maintenance dose of 2 g administered daily for 3 days as continuous iv infusion presence of cilastatin maintenance dose administered as continuous fusion at 8 hrs interval over 72 hrs in presence of cilastatin; format: ADME, organism-based; settings: human, in vivo
Homo sapiens = species: Homo sapiens; assay: Toxicity in nosocomial pneumonia patient assessed as induction of seizures in presence of cilastin; format: organism-based; settings: in vivo
Serum = assay: Protein binding in human serum by ultrafiltration technique in presence of cilastatin; format: ADME, cell-free
[2] = Plasma concentration in nosocomial pneumonia patient at loading dose of 1 g and maintenance dose of 2 g administered daily for 3 days as continuous infusion measured after 72 hrs in presence of cilastatin; format: ADME, organism-based; settings: human, iv

In the case of C[C@@H](O)[C@H]1C(=O)N2C(C(=O)O)=C(SCCN=CN)C[C@H]12 [IMIPENEM ANHYDROUS], the clearance [1] is reported as 205 mL/min, the Activity (Homo sapiens) is reported as “Non-toxic” and the Activity (Serum) is reported as 20%. For the same compound, the concentration at 72 h [2] was 8650 ng/mL.

— ChEMBL document CHEMBL1154415, “Population pharmacokinetics and pharmacodynamics of continuous versus short-term infusion of imipenem-cilastatin in critically ill patients in a randomized, controlled trial” (Antimicrob Agents Chemother, 2007)
